Tested on: hamster sebocytes
Assay: Sebocyte culture test (sebum synthesis amount, Oil Red O staining)
Format: cell-based, golden hamster
Details: concentration of 1×10^−5 M; microscopic observation and absorbance measurement; medium with 1×10^−6M testosterone; about 2 weeks
Experimental: 1. The test was carried out using a hamster sebocyte culture kit KB-1000 (manufactured by KURABO […] LTD.).
The sebocyte cell derived from the auricula of a normal golden hamster was inoculated in a 24-well plate in a density of 5.0×10^4 cells/well. During the test, the cell was cultured in medium containing testosterone in a concentration of 1×10^−6M.
2. The cell was cultured for several days until confluent, and the medium was exchanged with medium containing the test sample. The medium was exchanged with sample medium every other day and the culture was continued for about 2 weeks.
In this test, cow's lactoferrin was prepared to be used as the lactoferrin, and spironolactone was used as a control.
3. Then, using a sebum synthesis assay kit SE-3001 (manufactured by KURABO […], LTD.), a WST-8 solution was added to each well and incubated for 30 minutes at 37° C. The supernatant was assayed at a wavelength of 450 nm, and the number of viable cell was counted.
4. Further, the supernatant was stained with Oil Red O and observed under a microscope while extracted with 100% isopropanol and measured at a wavelength of 520 nm for the lipid synthesis amount. […]
Comparison of lipid synthesis amount per cell=absorbance B/absorbance A
Absorbance A: cell number measured value (450 nm)
Absorbance B: lipid synthesis amount measured value (520 nm)

CC(=O)S[C@@H]1CC2=CC(=O)CC[C@]2(C)[C@H]2CC[C@@]3(C)[C@@H](CC[C@@]34CCC(=O)O4)[C@H]12 [spironolactone, reference compound] was tested, and the “sebum synthesis amount compared with the control” value was “decreased sebum synthesis amount compared with the control”.
